# Reference: patent US11629155B2, “Small molecule antagonist compound TAC5 series having toll-like receptor 3/7/8/9 inhibitory function” (AJOU UNIVERSITY INDUSTRY-ACADEMIC COOPERATION FOUNDATION, priority 2018, dated 2023)
# Columns and labels:
# TLR7 = molecular target: T1, TLR7 (Homo sapiens, UniProt Q9NYK1); experiment: IMQ, R848 or CL075-induced TNF-α or IL-6 secretion in THP1-derived macrophages; format: cell-based; settings: R848 or CL075, dose-dependent manner, FIGS. 4E-4G
# T1 construct: endogenous in cells; host or cells: THP1-derived macrophages (PMA-differentiated)
# T1 sequence (Q9NYK1 27-1049): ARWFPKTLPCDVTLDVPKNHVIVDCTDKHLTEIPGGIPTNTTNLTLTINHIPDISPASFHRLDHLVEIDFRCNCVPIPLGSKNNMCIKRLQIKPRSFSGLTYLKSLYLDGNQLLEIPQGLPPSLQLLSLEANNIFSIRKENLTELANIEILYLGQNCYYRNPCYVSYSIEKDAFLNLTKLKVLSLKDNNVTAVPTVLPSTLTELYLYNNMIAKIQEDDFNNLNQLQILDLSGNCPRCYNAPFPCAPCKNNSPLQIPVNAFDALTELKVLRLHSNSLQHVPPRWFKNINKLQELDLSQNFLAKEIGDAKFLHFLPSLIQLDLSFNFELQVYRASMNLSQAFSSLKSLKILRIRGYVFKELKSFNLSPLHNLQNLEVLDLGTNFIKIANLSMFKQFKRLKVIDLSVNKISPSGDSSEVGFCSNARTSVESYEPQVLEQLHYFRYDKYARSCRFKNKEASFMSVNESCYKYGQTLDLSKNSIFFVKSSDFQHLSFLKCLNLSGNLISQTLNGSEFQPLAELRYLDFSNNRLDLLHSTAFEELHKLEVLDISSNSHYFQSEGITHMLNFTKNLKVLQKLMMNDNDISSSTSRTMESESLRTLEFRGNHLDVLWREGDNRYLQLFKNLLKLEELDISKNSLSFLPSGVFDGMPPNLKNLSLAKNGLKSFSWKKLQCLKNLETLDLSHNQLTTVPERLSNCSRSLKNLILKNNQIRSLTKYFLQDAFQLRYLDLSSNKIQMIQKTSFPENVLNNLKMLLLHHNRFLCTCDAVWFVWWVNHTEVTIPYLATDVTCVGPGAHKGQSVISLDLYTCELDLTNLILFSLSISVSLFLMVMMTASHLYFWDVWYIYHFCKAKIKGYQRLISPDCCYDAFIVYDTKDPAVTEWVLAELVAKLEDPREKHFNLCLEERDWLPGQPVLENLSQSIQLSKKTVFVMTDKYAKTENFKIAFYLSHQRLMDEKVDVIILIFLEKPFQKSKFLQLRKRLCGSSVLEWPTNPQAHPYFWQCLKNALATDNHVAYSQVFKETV
# TLR3 = molecular target: T2, TLR3 (Homo sapiens, UniProt O15455); experiment: poly(I:C)-induced TNF-α or IL-6 secretion in THP1-derived macrophages; format: cell-based; settings: dose-dependent manner, FIGS. 4E-4G
# T2 construct: endogenous in cells; host or cells: THP1-derived macrophages (PMA-differentiated)
# T2 sequence (O15455 24-904): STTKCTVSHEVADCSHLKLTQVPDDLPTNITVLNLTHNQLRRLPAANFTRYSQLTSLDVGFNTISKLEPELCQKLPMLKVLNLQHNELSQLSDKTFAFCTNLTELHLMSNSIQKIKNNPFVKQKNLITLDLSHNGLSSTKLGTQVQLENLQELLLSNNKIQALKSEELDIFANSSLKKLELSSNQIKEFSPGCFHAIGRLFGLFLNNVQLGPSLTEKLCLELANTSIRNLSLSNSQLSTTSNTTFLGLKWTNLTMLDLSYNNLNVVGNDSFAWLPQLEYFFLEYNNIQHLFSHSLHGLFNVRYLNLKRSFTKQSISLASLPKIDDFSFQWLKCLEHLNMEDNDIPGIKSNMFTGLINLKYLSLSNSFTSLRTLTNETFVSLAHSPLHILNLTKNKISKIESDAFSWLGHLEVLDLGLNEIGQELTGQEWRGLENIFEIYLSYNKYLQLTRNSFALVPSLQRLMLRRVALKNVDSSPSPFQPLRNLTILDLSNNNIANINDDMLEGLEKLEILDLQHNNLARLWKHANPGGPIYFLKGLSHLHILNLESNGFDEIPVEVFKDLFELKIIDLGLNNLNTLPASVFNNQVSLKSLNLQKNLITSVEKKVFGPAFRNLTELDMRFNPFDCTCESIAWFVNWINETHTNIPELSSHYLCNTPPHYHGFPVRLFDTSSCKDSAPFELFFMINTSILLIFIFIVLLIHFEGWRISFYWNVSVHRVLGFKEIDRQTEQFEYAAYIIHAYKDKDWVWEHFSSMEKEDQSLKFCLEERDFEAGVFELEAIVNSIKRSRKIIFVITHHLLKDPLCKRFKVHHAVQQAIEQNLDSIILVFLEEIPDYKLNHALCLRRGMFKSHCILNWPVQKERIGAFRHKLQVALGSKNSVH
# [1] = tested on: C57BL/6 mice, IMQ-induced psoriasis; experiment: IMQ-induced psoriasis mouse model; format: in vivo
# Procedure: The therapeutic efficacy of TAC5-a was evaluated in a psoriasis mouse model and a SLE mouse model. Psoriasis was induced in 6-7 week old C57BL/6 mice by topically applying 42 mg of IMQ cream (5%) to the shaved back skin of the mice for 6 consecutive days (FIG. 5A). TAC5-a was injected daily at doses of 50, 100 and 200 nmol/g and the effect thereof on severity was analyzed.
# Histological analysis and immunochemical staining were performed on skin samples of mouse dorsal lesions. The sample was fixed with 4% paraformaldehyde solution, then embedded in paraffin and cut to 7 μm on a glass slide. The sections were stained with hematoxylin and eosin (H&E) and the thickness of the dermis and epidermis were measured. The thickness of skin was measured with a Leica DMi8 fluorescence microscope using a Leica LAS X Hardware Configurator (Leica Microsystems GmbH, Wetzlar, Germany). IMQ-mediated skin inflammation was evaluated by immunohistochemistry (IHC) using a primary antibody that recognizes CD68 (ab31630, 1:200 dilution) as a macrophage marker. […] The skin was stained with hematoxylin and eosin (H&E) in order to evaluate the thickness of the epidermis (yellow arrow) and dermis (green arrow) in IMQ-induced psoriasis mice and thereby to observe the histopathological changes of skin lesions in each group (FIG. 5G) Immunohistochemical analysis of skin lesions in each group was performed using a primary antibody that recognizes CD68.
smiles,measurement,setting,value
"Nc1cccc(COc2cccnc2N)c1 [TAC5-a, 3-((3-aminobenzyl)oxy)pyridin-2-amine]",TLR7-mediated TNF-α or IL-6 secretion,TLR7,significantly inhibited
same,TLR3-mediated TNF-α or IL-6 secretion,TLR3,significantly inhibited
same,effect on back skin inflammation compared with methotrexate (MTX),[1]; FIG. 5B,relatively weaker
same,spleen hypertrophy,[1]; FIG. 5D,adequately prevented
same,thickness of the epidermis and the dermis (H&E),[1]; FIG. 5F,therapeutic effects similar to those of the treatment group were observed
same,expression of CD68 in skin lesions (immunohistochemistry),[1]; FIG. 5H,effectively reduced
same,PASI score (psoriasis area and severity index),"[1]; fourth day of treatment, decreased from 8.0 or higher, FIG. 5C",less than 4.0
same,degree of inflammation in the back skin,"[1]; injected daily at 50, 100 and 200 nmol/g, FIG. 5B",reversal of the degree of inflammation was evident
